Data taken from PMC9288506, “Compounds activating VCP D1 ATPase enhance both autophagic and proteasomal neurotoxic protein clearance” (Nature Communications, 2022).

How the values were obtained:
[1] = molecular target: T1, VCP (p97, Valosin-containing protein) (Homo sapiens, UniProt P55072); assay: SPR (also DARTS, LiP-MS, competition pulldown, ATPase activation); format: binding
T1 construct: Full-length VCP (6xHis-tag)

ABL2 (Arg) = ABL2 (Arg) (Homo sapiens, UniProt P42684); assay: biochemical; set-up: Thermo Fisher in vitro kinase panel, per cent inhibition of kinase activity at 10 uM
Description: (§1) Kinase profiling of SMER28 and analogs SMER28 and analogs were tested at 10 µM in a panel of 123 kinases at ThermoFisher Scientific. Follow-up of selected kinases for SMER28 and analogs was also performed at ThermoFisher Scientific. Data are shown in Supplementary Data 2 and 3. […] An inhibition of PIK3C could induce autophagy, mediated by signaling through the AKT/mTOR axis[45].

ACVR1B (ALK4) = ACVR1B (ALK4) (Homo sapiens, UniProt P36896); assay: biochemical; set-up: Thermo Fisher in vitro kinase panel, per cent inhibition of kinase activity at 10 uM
Description: as §1

CSF1R (FMS) = CSF1R (FMS) (Homo sapiens, UniProt P07333); assay: biochemical; set-up: Thermo Fisher in vitro kinase panel, per cent inhibition of kinase activity at 10 uM
Description: as §1

EEF2K = EEF2K (Homo sapiens, UniProt O00418); assay: biochemical; set-up: Thermo Fisher in vitro kinase panel, per cent inhibition of kinase activity at 10 uM
Description: as §1

ERBB2 (HER2) = ERBB2 (HER2) (Homo sapiens, UniProt P04626); assay: biochemical; set-up: Thermo Fisher in vitro kinase panel, per cent inhibition of kinase activity at 10 uM
Description: as §1

GSK3B (GSK3 beta) = GSK3B (GSK3 beta) (Homo sapiens, UniProt P49841); assay: biochemical; set-up: Thermo Fisher in vitro kinase panel, per cent inhibition of kinase activity at 10 uM
Description: as §1

IGF1R = IGF1R (Homo sapiens, UniProt P08069); assay: biochemical; set-up: Thermo Fisher in vitro kinase panel, per cent inhibition of kinase activity at 10 uM
Description: as §1

KDR (VEGFR2) = KDR (VEGFR2) (Homo sapiens, UniProt P35968); assay: biochemical; set-up: Thermo Fisher in vitro kinase panel, per cent inhibition of kinase activity at 10 uM
Description: as §1

[2] = molecular target: T2, MAPK14 (p38 alpha) Direct (Homo sapiens, UniProt Q16539); assay: biochemical; set-up: Thermo Fisher in vitro kinase panel, per cent inhibition of kinase activity at 10 uM
T2 construct: Direct
Description: as §1

MAPKAPK5 (PRAK) = MAPKAPK5 (PRAK) (Homo sapiens, UniProt Q8IW41); assay: biochemical; set-up: Thermo Fisher in vitro kinase panel, per cent inhibition of kinase activity at 10 uM
Description: as §1

MET (cMet) = MET (cMet) (Homo sapiens, UniProt P08581); assay: biochemical; set-up: Thermo Fisher in vitro kinase panel, per cent inhibition of kinase activity at 10 uM
Description: as §1

MST1R (RON) = MST1R (RON) (Homo sapiens, UniProt Q04912); assay: biochemical; set-up: Thermo Fisher in vitro kinase panel, per cent inhibition of kinase activity at 10 uM
Description: as §1

PDGFRB (PDGFR beta) = PDGFRB (PDGFR beta) (Homo sapiens, UniProt P09619); assay: biochemical; set-up: Thermo Fisher in vitro kinase panel, per cent inhibition of kinase activity at 10 uM
Description: as §1

PIK3C2A (PI3K-C2 alpha) = PIK3C2A (PI3K-C2 alpha) (Homo sapiens, UniProt O00443); assay: biochemical; set-up: Thermo Fisher in vitro kinase panel, per cent inhibition of kinase activity at 10 uM
Description: as §1

PLK1 = PLK1 (Homo sapiens, UniProt P53350); assay: biochemical; set-up: Thermo Fisher in vitro kinase panel, per cent inhibition of kinase activity at 10 uM
Description: as §1

PRKCE (PKC epsilon) = PRKCE (PKC epsilon) (Homo sapiens, UniProt Q02156); assay: biochemical; set-up: Thermo Fisher in vitro kinase panel, per cent inhibition of kinase activity at 10 uM
Description: as §1

PRKCQ (PKC theta) = PRKCQ (PKC theta) (Homo sapiens, UniProt Q04759); assay: biochemical; set-up: Thermo Fisher in vitro kinase panel, per cent inhibition of kinase activity at 10 uM
Description: as §1

PRKG1 = PRKG1 (Homo sapiens, UniProt Q13976); assay: biochemical; set-up: Thermo Fisher in vitro kinase panel, per cent inhibition of kinase activity at 10 uM
Description: as §1

STK17A (DRAK1) = STK17A (DRAK1) (Homo sapiens, UniProt Q9UEE5); assay: biochemical; set-up: Thermo Fisher in vitro kinase panel, per cent inhibition of kinase activity at 10 uM
Description: as §1

STK4 (MST1) = STK4 (MST1) (Homo sapiens, UniProt Q13043); assay: biochemical; set-up: Thermo Fisher in vitro kinase panel, per cent inhibition of kinase activity at 10 uM
Description: as §1

SYK = SYK (Homo sapiens, UniProt P43405); assay: biochemical; set-up: Thermo Fisher in vitro kinase panel, per cent inhibition of kinase activity at 10 uM
Description: as §1

TGFBR1 (ALK5) = TGFBR1 (ALK5) (Homo sapiens, UniProt P36897); assay: biochemical; set-up: Thermo Fisher in vitro kinase panel, per cent inhibition of kinase activity at 10 uM
Description: as §1

Sequence of MET (cMet) (P08581 whole entry): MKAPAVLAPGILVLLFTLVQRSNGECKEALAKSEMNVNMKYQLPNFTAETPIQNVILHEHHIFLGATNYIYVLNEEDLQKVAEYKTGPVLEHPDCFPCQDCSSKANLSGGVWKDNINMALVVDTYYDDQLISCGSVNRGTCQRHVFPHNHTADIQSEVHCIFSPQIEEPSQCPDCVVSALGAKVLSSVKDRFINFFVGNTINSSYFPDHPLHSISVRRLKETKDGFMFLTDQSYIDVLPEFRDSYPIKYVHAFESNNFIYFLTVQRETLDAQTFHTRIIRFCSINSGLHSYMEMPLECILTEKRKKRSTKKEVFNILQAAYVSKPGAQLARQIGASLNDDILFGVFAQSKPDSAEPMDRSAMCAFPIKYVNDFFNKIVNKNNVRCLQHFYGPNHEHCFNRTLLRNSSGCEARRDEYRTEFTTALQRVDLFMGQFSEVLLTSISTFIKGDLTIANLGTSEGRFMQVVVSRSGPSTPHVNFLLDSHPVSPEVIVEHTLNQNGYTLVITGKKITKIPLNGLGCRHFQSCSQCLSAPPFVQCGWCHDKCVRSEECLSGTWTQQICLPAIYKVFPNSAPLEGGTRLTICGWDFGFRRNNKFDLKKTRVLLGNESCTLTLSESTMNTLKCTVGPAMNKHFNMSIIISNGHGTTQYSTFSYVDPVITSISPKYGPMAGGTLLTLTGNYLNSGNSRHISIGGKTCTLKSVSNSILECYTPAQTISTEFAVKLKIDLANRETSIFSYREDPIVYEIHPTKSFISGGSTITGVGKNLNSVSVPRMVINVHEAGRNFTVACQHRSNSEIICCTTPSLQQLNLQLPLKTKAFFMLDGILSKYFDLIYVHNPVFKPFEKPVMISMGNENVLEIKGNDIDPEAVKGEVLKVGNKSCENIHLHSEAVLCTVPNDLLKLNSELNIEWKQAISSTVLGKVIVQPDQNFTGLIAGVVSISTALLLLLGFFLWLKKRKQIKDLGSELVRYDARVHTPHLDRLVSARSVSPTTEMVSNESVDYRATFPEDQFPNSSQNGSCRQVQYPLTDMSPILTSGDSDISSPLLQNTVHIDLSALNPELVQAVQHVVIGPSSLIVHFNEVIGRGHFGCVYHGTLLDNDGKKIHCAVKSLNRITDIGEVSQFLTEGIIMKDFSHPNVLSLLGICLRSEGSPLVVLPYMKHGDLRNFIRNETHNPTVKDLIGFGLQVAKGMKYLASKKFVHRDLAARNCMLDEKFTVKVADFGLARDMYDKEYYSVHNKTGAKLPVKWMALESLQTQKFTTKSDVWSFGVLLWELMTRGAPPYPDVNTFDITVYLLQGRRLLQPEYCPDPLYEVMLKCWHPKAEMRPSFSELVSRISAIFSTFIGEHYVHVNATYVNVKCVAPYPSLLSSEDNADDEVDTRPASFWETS
Sequence of STK4 (MST1) (Q13043 whole entry): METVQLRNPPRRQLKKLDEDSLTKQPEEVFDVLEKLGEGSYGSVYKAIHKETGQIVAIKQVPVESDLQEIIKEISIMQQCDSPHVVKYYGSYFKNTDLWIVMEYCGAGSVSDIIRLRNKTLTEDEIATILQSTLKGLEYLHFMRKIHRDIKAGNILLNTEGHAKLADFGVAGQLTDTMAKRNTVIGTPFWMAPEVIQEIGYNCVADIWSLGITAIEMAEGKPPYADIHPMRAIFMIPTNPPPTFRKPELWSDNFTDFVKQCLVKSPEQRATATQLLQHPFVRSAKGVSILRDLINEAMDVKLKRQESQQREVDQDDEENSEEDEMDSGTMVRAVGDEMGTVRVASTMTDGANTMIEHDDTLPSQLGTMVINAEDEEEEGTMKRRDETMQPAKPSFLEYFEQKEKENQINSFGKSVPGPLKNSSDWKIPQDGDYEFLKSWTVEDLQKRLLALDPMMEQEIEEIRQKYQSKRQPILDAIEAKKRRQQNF
Sequence of KDR (VEGFR2) (P35968 whole entry): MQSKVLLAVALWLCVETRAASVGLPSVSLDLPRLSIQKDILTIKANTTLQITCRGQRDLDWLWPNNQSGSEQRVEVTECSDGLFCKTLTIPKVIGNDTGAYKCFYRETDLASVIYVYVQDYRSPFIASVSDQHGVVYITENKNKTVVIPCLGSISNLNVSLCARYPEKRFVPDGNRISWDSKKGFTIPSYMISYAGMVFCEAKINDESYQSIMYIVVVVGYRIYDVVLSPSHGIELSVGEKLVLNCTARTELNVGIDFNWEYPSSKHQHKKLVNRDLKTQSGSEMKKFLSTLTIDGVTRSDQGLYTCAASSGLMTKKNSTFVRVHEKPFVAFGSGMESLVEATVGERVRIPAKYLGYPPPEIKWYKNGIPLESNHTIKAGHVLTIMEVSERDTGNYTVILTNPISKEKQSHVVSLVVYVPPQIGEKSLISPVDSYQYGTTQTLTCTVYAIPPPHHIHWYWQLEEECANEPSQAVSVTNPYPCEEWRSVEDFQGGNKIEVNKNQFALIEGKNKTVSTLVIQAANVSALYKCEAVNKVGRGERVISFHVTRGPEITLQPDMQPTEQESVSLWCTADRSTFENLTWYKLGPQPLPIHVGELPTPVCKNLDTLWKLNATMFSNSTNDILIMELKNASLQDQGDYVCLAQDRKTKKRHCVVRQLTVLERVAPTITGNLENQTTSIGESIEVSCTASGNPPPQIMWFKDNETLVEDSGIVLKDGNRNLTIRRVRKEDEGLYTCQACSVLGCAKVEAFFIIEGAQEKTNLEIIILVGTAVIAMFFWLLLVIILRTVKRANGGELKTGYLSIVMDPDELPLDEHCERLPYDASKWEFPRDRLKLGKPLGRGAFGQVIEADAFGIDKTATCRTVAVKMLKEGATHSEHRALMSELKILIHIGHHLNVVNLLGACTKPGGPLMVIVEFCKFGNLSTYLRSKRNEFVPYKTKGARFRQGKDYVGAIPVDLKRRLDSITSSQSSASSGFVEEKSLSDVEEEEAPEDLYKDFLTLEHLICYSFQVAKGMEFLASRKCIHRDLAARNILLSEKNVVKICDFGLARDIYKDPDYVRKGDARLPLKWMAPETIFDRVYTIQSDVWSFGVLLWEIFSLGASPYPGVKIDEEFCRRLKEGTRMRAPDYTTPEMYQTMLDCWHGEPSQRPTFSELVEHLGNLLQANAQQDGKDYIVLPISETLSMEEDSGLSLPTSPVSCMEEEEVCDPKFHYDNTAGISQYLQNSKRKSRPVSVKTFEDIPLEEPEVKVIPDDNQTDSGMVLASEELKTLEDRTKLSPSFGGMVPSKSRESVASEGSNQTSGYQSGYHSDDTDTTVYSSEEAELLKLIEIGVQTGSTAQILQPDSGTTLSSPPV
Sequence of CSF1R (FMS) (P07333 whole entry): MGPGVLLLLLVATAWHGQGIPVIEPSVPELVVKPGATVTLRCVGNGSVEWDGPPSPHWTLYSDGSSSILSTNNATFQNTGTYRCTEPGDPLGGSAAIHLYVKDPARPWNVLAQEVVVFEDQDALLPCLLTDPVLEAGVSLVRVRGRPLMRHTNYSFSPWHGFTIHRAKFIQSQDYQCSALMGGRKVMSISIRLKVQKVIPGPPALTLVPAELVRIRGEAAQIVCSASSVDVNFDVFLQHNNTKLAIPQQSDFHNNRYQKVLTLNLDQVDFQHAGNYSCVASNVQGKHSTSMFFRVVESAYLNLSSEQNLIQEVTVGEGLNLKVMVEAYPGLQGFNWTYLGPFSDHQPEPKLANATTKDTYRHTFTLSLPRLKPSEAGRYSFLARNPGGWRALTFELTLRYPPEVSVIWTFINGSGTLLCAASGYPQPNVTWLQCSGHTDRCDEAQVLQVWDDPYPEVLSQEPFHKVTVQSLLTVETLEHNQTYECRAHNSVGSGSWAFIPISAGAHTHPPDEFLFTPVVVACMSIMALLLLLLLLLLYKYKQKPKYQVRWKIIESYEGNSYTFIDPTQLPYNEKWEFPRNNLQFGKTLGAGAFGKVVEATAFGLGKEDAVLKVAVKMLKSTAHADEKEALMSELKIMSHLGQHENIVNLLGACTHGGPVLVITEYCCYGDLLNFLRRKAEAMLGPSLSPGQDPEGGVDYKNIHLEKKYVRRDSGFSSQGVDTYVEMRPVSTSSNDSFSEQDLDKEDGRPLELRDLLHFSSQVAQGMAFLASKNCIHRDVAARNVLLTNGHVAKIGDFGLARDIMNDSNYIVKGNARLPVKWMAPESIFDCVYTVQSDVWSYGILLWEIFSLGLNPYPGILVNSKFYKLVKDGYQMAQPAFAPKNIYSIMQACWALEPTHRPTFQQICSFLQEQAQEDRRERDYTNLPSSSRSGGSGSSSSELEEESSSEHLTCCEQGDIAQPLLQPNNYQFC
T1 sequence (P55072 2-806): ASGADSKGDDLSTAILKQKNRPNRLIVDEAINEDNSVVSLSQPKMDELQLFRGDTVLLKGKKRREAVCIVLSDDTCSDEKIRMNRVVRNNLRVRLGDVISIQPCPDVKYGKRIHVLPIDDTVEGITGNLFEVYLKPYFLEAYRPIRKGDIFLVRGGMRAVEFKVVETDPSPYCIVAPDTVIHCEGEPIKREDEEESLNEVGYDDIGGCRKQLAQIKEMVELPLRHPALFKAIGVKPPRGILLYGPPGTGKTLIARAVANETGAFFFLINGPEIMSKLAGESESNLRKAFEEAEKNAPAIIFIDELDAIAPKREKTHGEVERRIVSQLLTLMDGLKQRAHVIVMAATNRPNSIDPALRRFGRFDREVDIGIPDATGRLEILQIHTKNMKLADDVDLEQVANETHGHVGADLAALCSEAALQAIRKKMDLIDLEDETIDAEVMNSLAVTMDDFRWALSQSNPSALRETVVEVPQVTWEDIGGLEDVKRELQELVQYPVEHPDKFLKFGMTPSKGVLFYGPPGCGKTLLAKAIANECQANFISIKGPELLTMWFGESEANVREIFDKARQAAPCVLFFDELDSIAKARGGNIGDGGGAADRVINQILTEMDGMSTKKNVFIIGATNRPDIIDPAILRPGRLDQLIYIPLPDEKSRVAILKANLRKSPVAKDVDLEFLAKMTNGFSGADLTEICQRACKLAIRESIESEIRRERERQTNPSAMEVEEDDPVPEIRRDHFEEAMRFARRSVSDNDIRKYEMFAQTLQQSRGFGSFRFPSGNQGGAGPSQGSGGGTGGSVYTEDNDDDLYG

`C=CCNc1ncnc2ccc(Br)cc12` [SMER28] gave a Kd [1] of ~750 nM, an inhibition at 10 µM (ABL2 (Arg)) of 3% and an inhibition at 10 µM (ACVR1B (ALK4)) of -19%. The inhibition at 10 µM (CSF1R (FMS)) was 39%, the inhibition at 10 µM (EEF2K) was 2% and the inhibition at 10 µM (ERBB2 (HER2)) was -1%. The inhibition at 10 µM (GSK3B (GSK3 beta)) was 24%, the inhibition at 10 µM (IGF1R) was 12% and the inhibition at 10 µM (KDR (VEGFR2)) was 13%. It also gave an inhibition at 10 µM [2] of 7%, an inhibition at 10 µM (MAPKAPK5 (PRAK)) of 8% and an inhibition at 10 µM (MET (cMet)) of 8%. The inhibition at 10 µM (MST1R (RON)) was -4%, the inhibition at 10 µM (PDGFRB (PDGFR beta)) was 8% and the inhibition at 10 µM (PIK3C2A (PI3K-C2 alpha)) was 22%. The inhibition at 10 µM (PLK1) was 11%, the inhibition at 10 µM (PRKCE (PKC epsilon)) was 18% and the inhibition at 10 µM (PRKCQ (PKC theta)) was 0%. It also gave an inhibition at 10 µM (PRKG1) of 6%, an inhibition at 10 µM (STK17A (DRAK1)) of 34% and an inhibition at 10 µM (STK4 (MST1)) of 11%. It also gave an inhibition at 10 µM (SYK) of 8% and an inhibition at 10 µM (TGFBR1 (ALK5)) of 6%.
